Assay results published in PubChem BioAssay AID248 (DTP/NCI, 2004).
Values joined by “and” are separate entries in the source; they are usually repeats but may differ in a detail not shown here. Equal entries are not always repeated. Inconclusive results and toxic doses are left out. No stated cut-off is given here; in the data, active means T/C of 150% or more; inactive means T/C below 125%.

Tested on: L1210 leukemia ip in BDF1 mice, survival T/C
Test: NCI In Vivo Anticancer Drug Screen. Data for tumor model L1210 Leukemia (intraperitoneal) in B6D2F1 (BDF1) mice
Conditions: endpoint: mean survival time, higher = longer survival
Method in brief: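 Tumor cells were implanted, animals were treated, and survival was followed. The result divides the treated measurement by the vehicle-control measurement.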

[1] = dose: 100.0 mg/kg/injection, schedule: Q01DX009 (ip), vehicle: Klucel (hydroxypropylcellulose) (HPC)
[2] = dose: 100.0 mg/kg/injection, schedule: Q04DX002 (ip), vehicle: Klucel (hydroxypropylcellulose) (HPC)
[3] = dose: 200.0 mg/kg/injection, schedule: Q01DX009 (ip), vehicle: Klucel (hydroxypropylcellulose) (HPC)
[4] = dose: 400.0 mg/kg/injection, schedule: Q01DX009 (ip), vehicle: Klucel (hydroxypropylcellulose) (HPC)
[5] = dose: 100.0 mg/kg/injection, schedule: Q01DX009 (ip), vehicle: saline with Tween-80
[6] = dose: 100.0 mg/kg/injection, schedule: Q04DX003 (ip), vehicle: saline with Tween-80
[7] = dose: 200.0 mg/kg/injection, schedule: Q01DX009 (ip), vehicle: saline with Tween-80
[8] = dose: 200.0 mg/kg/injection, schedule: Q04DX003 (ip), vehicle: saline with Tween-80
[9] = dose: 100.0 mg/kg/injection, schedule: Q01DX001 (ip), vehicle: saline
[10] = dose: 200.0 mg/kg/injection, schedule: Q01DX001 (ip), vehicle: saline
[11] = dose: 50.0 mg/kg/injection, schedule: Q01DX009 (ip), vehicle: saline with Tween-80
[12] = dose: 100.0 mg/kg/injection, schedule: Q01DX001 (ip), vehicle: carboxymethylcellulose (CMC)
[13] = dose: 200.0 mg/kg/injection, schedule: Q01DX001 (ip), vehicle: carboxymethylcellulose (CMC)
[14] = dose: 400.0 mg/kg/injection, schedule: Q01DX001 (ip), vehicle: carboxymethylcellulose (CMC)

Measured: T/C

[NH-]CC(=O)O.[NH-]CC(=O)O.[Pt+2]
inactive: dose: 14.0 mg/kg/injection, schedule: Q01DX009 (ip), vehicle: other 89 % of control | dose: 27.9 mg/kg/injection, schedule: Q01DX001 (ip), vehicle: other 93 % of control | dose: 28.0 mg/kg/injection, schedule: Q01DX009 (ip), vehicle: other 100 % of control | dose: 55.8 mg/kg/injection, schedule: Q01DX001 (ip), vehicle: other 89 % of control | dose: 56.0 mg/kg/injection, schedule: Q01DX009 (ip), vehicle: other 96 % of control | dose: 112.0 mg/kg/injection, schedule: Q01DX001 (ip), vehicle: other 97 % of control | dose: 112.0 mg/kg/injection, schedule: Q01DX009 (ip), vehicle: other 113 % of control | dose: 223.0 mg/kg/injection, schedule: Q01DX001 (ip), vehicle: other 109 % of control

CCOC(=O)CNCc1cccc(Cl)c1
inactive: dose: 100.0 mg/kg/injection, schedule: Q01DX009 (ip), vehicle: saline 98 % of control | dose: 100.0 mg/kg/injection, schedule: Q04DX003 (ip), vehicle: saline 102 % of control | dose: 200.0 mg/kg/injection, schedule: Q01DX009 (ip), vehicle: saline 95 % of control | dose: 200.0 mg/kg/injection, schedule: Q04DX003 (ip), vehicle: saline 100 % of control | dose: 400.0 mg/kg/injection, schedule: Q04DX003 (ip), vehicle: saline 95 % of control

CN(Cc1cc(Cl)cc(Cl)c1O)C1CC2CCC1(C)C2(C)C (stereo not drawn)
inactive: dose: 25.0 mg/kg/injection, schedule: Q04DX002 (ip), vehicle: Klucel (hydroxypropylcellulose) (HPC) 96 % of control | dose: 50.0 mg/kg/injection, schedule: Q04DX002 (ip), vehicle: Klucel (hydroxypropylcellulose) (HPC) 103 % of control | [1] 90 % of control | [2] 92 % of control | [3] 88 % of control | [4] 103 % of control

CC(OC(=O)Nc1ccccc1)C(=O)O (stereo not drawn)
inactive: [5] 92 % of control | [6] 96 % of control | [7] 92 % of control | [8] 101 % of control | dose: 400.0 mg/kg/injection, schedule: Q01DX009 (ip), vehicle: saline with Tween-80 95 % of control | dose: 400.0 mg/kg/injection, schedule: Q04DX003 (ip), vehicle: saline with Tween-80 96 % of control

CC1C(OC(=O)CCc2ccccc2)=CCC2C1(C)CCC1C2(C)CCC2(C)C3CC(C)(C)CCC3(C)CCC12C (stereo not drawn)
inactive: dose: 50.0 mg/kg/injection, schedule: Q01DX001 (ip), vehicle: saline 98 % of control | [9] 102 % of control | [10] 95 % of control

CC(=O)Oc1ccc(N2C(=O)C=CC2=O)cc1 (tested in a mixture with another compound)
inactive: dose: 100.0 mg/kg/injection, schedule: Q04DX003 (ip), vehicle: acetone 96 % of control | dose: 100.0 mg/kg/injection, schedule: Q04DX003 (ip), vehicle: other 89 % of control | dose: 200.0 mg/kg/injection, schedule: Q04DX003 (ip), vehicle: acetone 96 % of control | dose: 400.0 mg/kg/injection, schedule: Q04DX003 (ip), vehicle: acetone 100 % of control | dose: 400.0 mg/kg/injection, schedule: Q04DX003 (ip), vehicle: other 87 % of control

C1=CCC2CSCC2C1 (stereo not drawn)
inactive: dose: 75.0 mg/kg/injection, schedule: Q01DX009 (ip), vehicle: saline sonified 98 % of control | dose: 150.0 mg/kg/injection, schedule: Q01DX009 (ip), vehicle: saline sonified 98 % of control

C1CCc2c(c3c(c4c2CCCC4)CCCC3)C1
inactive: [2] 100 % of control | dose: 200.0 mg/kg/injection, schedule: Q04DX002 (ip), vehicle: Klucel (hydroxypropylcellulose) (HPC) 93 % of control | dose: 400.0 mg/kg/injection, schedule: Q04DX002 (ip), vehicle: Klucel (hydroxypropylcellulose) (HPC) 97 % of control

N#CCc1ccc(-c2ccccc2)cc1
inactive: dose: 12.5 mg/kg/injection, schedule: Q01DX009 (ip), vehicle: saline with Tween-80 103 % of control | dose: 25.0 mg/kg/injection, schedule: Q01DX009 (ip), vehicle: saline with Tween-80 95 % of control | [11] 94 % of control | dose: 50.0 mg/kg/injection, schedule: Q04DX003 (ip), vehicle: saline with Tween-80 97 % of control | [12] 100 % of control | [6] 93 % of control | [13] 100 % of control | [14] 93 % of control

CC1=CC(c2ccc3c(c2)OCO3)c2c(c3ccccc3oc2=O)O1 (stereo not drawn)
inactive: dose: 6.25 mg/kg/injection, schedule: Q01DX009 (ip), vehicle: water 98 % of control | dose: 12.5 mg/kg/injection, schedule: Q01DX009 (ip), vehicle: water 93 % of control | dose: 25.0 mg/kg/injection, schedule: Q01DX009 (ip), vehicle: water 100 % of control and 90 % of control | dose: 50.0 mg/kg/injection, schedule: Q01DX009 (ip), vehicle: water 86 % of control

O=C(Nc1ccccc1)OC1CCCC2CCC21 (stereo not drawn)
inactive: [9] 97 % of control | [10] 90 % of control | dose: 400.0 mg/kg/injection, schedule: Q01DX001 (ip), vehicle: saline 90 % of control

COc1ccc(OC)c(NC(=O)c2cccc([N+](=O)[O-])c2)c1
inactive: [12] 94 % of control | [13] 100 % of control | [14] 94 % of control

Cc1ccc([N+](=O)[O-])c(OC(=O)Nc2ccc(Cl)c(Cl)c2)c1
inactive: [1] 101 % of control | dose: 100.0 mg/kg/injection, schedule: Q04DX003 (ip), vehicle: Klucel (hydroxypropylcellulose) (HPC) 96 % of control and 106 % of control | [3] 101 % of control | dose: 200.0 mg/kg/injection, schedule: Q04DX003 (ip), vehicle: Klucel (hydroxypropylcellulose) (HPC) 88 % of control | [4] 114 % of control | dose: 400.0 mg/kg/injection, schedule: Q04DX003 (ip), vehicle: Klucel (hydroxypropylcellulose) (HPC) 87 % of control and 91 % of control

COc1cc(Br)c(CC2c3cc(OC)c(OC)cc3CC[N+]2(C)C)cc1OC (stereo not drawn)
inactive: dose: 100.0 mg/kg/injection, schedule: Q01DX001 (ip), vehicle: water 100 % of control | dose: 100.0 mg/kg/injection, schedule: Q01DX009 (ip), vehicle: water 101 % of control | dose: 100.0 mg/kg/injection, schedule: Q04DX003 (ip), vehicle: water 100 % of control | dose: 200.0 mg/kg/injection, schedule: Q01DX001 (ip), vehicle: water 102 % of control | dose: 200.0 mg/kg/injection, schedule: Q01DX009 (ip), vehicle: water 87 % of control | dose: 200.0 mg/kg/injection, schedule: Q04DX003 (ip), vehicle: water 97 % of control | dose: 400.0 mg/kg/injection, schedule: Q01DX001 (ip), vehicle: water 100 % of control | dose: 400.0 mg/kg/injection, schedule: Q04DX003 (ip), vehicle: water 91 % of control

CC(=O)OC1CCCC2=C(C)C(=O)CCC21C (stereo not drawn)
inactive: [11] 100 % of control | [5] 118 % of control | [7] 94 % of control

CCOC(=O)c1cnc(SC)nc1N(C)C
inactive: [6] 96 % of control | [8] 96 % of control

CC(C)(C)NCC1CCCC1
inactive: dose: 20.0 mg/kg/injection, schedule: Q04DX003 (ip), vehicle: saline 109 % of control | dose: 40.0 mg/kg/injection, schedule: Q04DX003 (ip), vehicle: saline 115 % of control | dose: 80.0 mg/kg/injection, schedule: Q04DX003 (ip), vehicle: saline 111 % of control
